Several values for one entry are separate records, joined by “and”; a condition that tells them apart may be missing. Equal entries are not always repeated. Inconclusive results and toxic doses are left out.
System: P388 leukemia ip, CD2F1 mice, survival T/C
Assay: NCI In Vivo Anticancer Drug Screen. Data for tumor model P388 Leukemia (intraperitoneal) in CD2F1 (CDF1) mice
Conditions: endpoint: median survival time, higher = longer survival
How it was run: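 Mice carrying the transplanted tumor received test compound or vehicle. Survival was recorded in each group, and the value is the treated-group measurement divided by that of the vehicle-treated control group.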

With `NC(=O)c1ncnc2nc[nH]c12` the T/C (dose: 1.56 mg/kg/injection, schedule: Q01DX005 (ip), vehicle: saline with Tween-80) was 100 % of control and 102 % of control and 96 % of control, the T/C (dose: 3.13 mg/kg/injection, schedule: Q01DX005 (ip), vehicle: saline with Tween-80) was 100 % of control and 105 % of control and the T/C (dose: 12.5 mg/kg/injection, schedule: Q01DX005 (ip), vehicle: saline with Tween-80) was 111 % of control and 114 % of control.
In the case of `NC(=O)c1ncn2c(=O)n(CCCl)nnc12`, the T/C (dose: 6.25 mg/kg/injection, schedule: Q01DX005 (ip), vehicle: saline) is reported as 181 % of control and 236 % of control, the T/C (dose: 6.7 mg/kg/injection, schedule: Q01DX005 (ip), vehicle: saline) is reported as 254 % of control and the T/C (dose: 10.0 mg/kg/injection, schedule: Q01DX005 (ip), vehicle: saline) is reported as 565 % of control and 566 % of control. The T/C (dose: 12.5 mg/kg/injection, schedule: Q01DX005 (ip), vehicle: saline) was 272 % of control and 275 % of control and 297 % of control, the T/C (dose: 15.0 mg/kg/injection, schedule: Q01DX005 (ip), vehicle: saline) was 566 % of control and 606 % of control and the T/C (dose: 22.0 mg/kg/injection, schedule: Q01DX005 (ip), vehicle: saline) was 393 % of control and 566 % of control. The T/C (dose: 25.0 mg/kg/injection, schedule: Q01DX005 (ip), vehicle: saline) was 272 % of control and 297 % of control and 306 % of control, the T/C (dose: 33.0 mg/kg/injection, schedule: Q01DX005 (ip), vehicle: saline) was 566 % of control and 606 % of control and the T/C (dose: 50.0 mg/kg/injection, schedule: Q01DX005 (ip), vehicle: Klucel (hydroxypropylcellulose) (HPC)) was 100 % of control.
`c1cn(C23CC4CC(CC(C4)C2)C3)cn1` was tested, and the T/C (dose: 25.0 mg/kg/injection, schedule: Q01DX001 (ip), vehicle: Klucel (hydroxypropylcellulose) (HPC)) was 97 % of control.
With `CCN(CC)C(=O)c1ccc(C)c2c1Nc1c(c(C)c3oc(=O)c(C)nc3c1C(=O)N(CC)CC)O2` the T/C (dose: 7.5 mg/kg/injection, schedule: Q01DX005 (ip), vehicle: Klucel (hydroxypropylcellulose) (HPC)) was 97 % of control, the T/C (dose: 15.0 mg/kg/injection, schedule: Q01DX005 (ip), vehicle: Klucel (hydroxypropylcellulose) (HPC)) was 90 % of control and the T/C (dose: 120.0 mg/kg/injection, schedule: Q01DX005 (ip), vehicle: Klucel (hydroxypropylcellulose) (HPC)) was 88 % of control. For the same compound, the T/C (dose: 240.0 mg/kg/injection, schedule: Q01DX005 (ip), vehicle: Klucel (hydroxypropylcellulose) (HPC)) was 92 % of control.
With `N=c1ncn(C2OC(CO)C(O)C2O)c2nc(Br)[nH]c12` (stereo unspecified) the T/C (dose: 25.0 mg/kg/injection, schedule: Q04DX003 (ip), vehicle: saline with Tween-80) was 100 % of control, the T/C (dose: 50.0 mg/kg/injection, schedule: Q04DX003 (ip), vehicle: saline with Tween-80) was 105 % of control and the T/C (dose: 100.0 mg/kg/injection, schedule: Q04DX003 (ip), vehicle: saline with Tween-80) was 100 % of control. For the same compound, the T/C (dose: 200.0 mg/kg/injection, schedule: Q04DX003 (ip), vehicle: saline with Tween-80) was 98 % of control.
`CCN(CC)CCCC(C)Nc1nncc2cc(Cl)ccc12` (stereo unspecified) was tested, and the T/C (dose: 50.0 mg/kg/injection, schedule: Q01DX005 (ip), vehicle: saline) was 95 % of control and the T/C (dose: 100.0 mg/kg/injection, schedule: Q01DX005 (ip), vehicle: saline) was 97 % of control.
With `CCOCC(=O)[C@]1(O)Cc2c(O)c3c(c(O)c2[C@@H](OC2CC(N)C(O)C(C)O2)C1)C(=O)c1c(OC)cccc1C3=O` (stereo partly specified) the T/C (dose: 1.56 mg/kg/injection, schedule: Q01DX009 (ip), vehicle: water) was 153 % of control and the T/C (dose: 3.13 mg/kg/injection, schedule: Q01DX009 (ip), vehicle: water) was 158 % of control and 163 % of control.
In the case of `COC(=O)C(C)C(O)C(C)N` (stereo unspecified), the T/C (dose: 12.5 mg/kg/injection, schedule: Q01DX009 (ip), vehicle: water) is reported as 107 % of control, the T/C (dose: 25.0 mg/kg/injection, schedule: Q01DX009 (ip), vehicle: water) is reported as 118 % of control and the T/C (dose: 50.0 mg/kg/injection, schedule: Q01DX009 (ip), vehicle: water) is reported as 106 % of control. The T/C (dose: 100.0 mg/kg/injection, schedule: Q01DX009 (ip), vehicle: water) was 98 % of control and the T/C (dose: 200.0 mg/kg/injection, schedule: Q01DX009 (ip), vehicle: water) was 100 % of control.
For `ClCC1(CCl)COC(c2ccccc2)OC1`, the T/C (dose: 100.0 mg/kg/injection, schedule: Q01DX009 (ip), vehicle: saline with Tween-80) was 100 % of control, the T/C (dose: 200.0 mg/kg/injection, schedule: Q01DX009 (ip), vehicle: saline with Tween-80) was 100 % of control and the T/C (dose: 400.0 mg/kg/injection, schedule: Q01DX009 (ip), vehicle: saline with Tween-80) was 95 % of control.
For `Cc1cnc(=O)[nH]c1NOCc1ccccc1`, the T/C (dose: 15.0 mg/kg/injection, schedule: Q01DX001 (ip), vehicle: saline) was 98 % of control, the T/C (dose: 30.0 mg/kg/injection, schedule: Q01DX001 (ip), vehicle: saline) was 105 % of control and the T/C (dose: 60.0 mg/kg/injection, schedule: Q01DX001 (ip), vehicle: saline) was 100 % of control.
With `COc1ccc(CCN2C(=O)NC(=O)C2=O)cc1OC` the T/C (dose: 60.0 mg/kg/injection, schedule: Q01DX005 (ip), vehicle: saline with Tween-80) was 97 % of control, the T/C (dose: 120.0 mg/kg/injection, schedule: Q01DX005 (ip), vehicle: saline with Tween-80) was 101 % of control and the T/C (dose: 240.0 mg/kg/injection, schedule: Q01DX005 (ip), vehicle: saline with Tween-80) was 97 % of control.
For `COc1ccc(CCN)c(OC)c1OC`, the T/C (dose: 50.0 mg/kg/injection, schedule: Q01DX009 (ip), vehicle: saline) was 105 % of control and 107 % of control and the T/C (dose: 100.0 mg/kg/injection, schedule: Q01DX009 (ip), vehicle: saline) was 104 % of control and 110 % of control.

— PubChem BioAssay AID330 (DTP/NCI, 2004)
